Measurements published in patent publication US20240174690A1, “ANNULATED 2-AMINO-3-CYANO THIOPHENES AND DERIVATIVES FOR THE TREATMENT OF CANCER” (BOEHRINGER INGELHEIM INTERNATIONAL GMBH, priority 2021, published 2024).

Tests used:
SAS cells = assay: SAS CTG proliferation assay (120 h) (HNSCC, wt amplified); format: cell-based
Experimental: SAS CTG Proliferation Assay (120 h) (HNSCC, Wt Amplified)
(§1) SAS cells (JCRB0260) are dispensed into 384-well plates, flat and clear bottom (Greiner, PNr. 781091) at a density of 300 cells per well in 60 μL DMEM:F12 (Gibco 31330-038)+10% Fetal Calf Serum (HyClone, PNr.: SH30084.03) and incubated at 37° C. in a CO2 incubator overnight. The next day, compounds (10 mM stock in DMSO) are added with the ECHO acoustic liquid handler system (Beckman Coulter), including DMSO controls. Plates are incubated for 120 h, and cell viability is measured using CellTiter-Glo luminescent cell viability reagent (Promega product code G7570). Viability (stated as percent of control) is defined as relative luminescence units RLU of each well divided by the RLU of cells in DMSO controls. IC50 values are determined from viability measurements by non-linear regression using a four-parameter model.

[1] = Caco-2 assay (permeability PappAB, PappBA, efflux ratio); format: in vitro ADME; conditions: human, Caco-2, 10 μM test compound, pH 7.4; for Papp A→B at 90 min, 10 μM: apical to basolateral; for efflux ratio at 90 min, 10 μM: efflux ratio PappBA/PappAB, read-out: Caco ER
From the text: The assay provides information on the potential of a compound to pass the cell membrane, on the extent of oral absorption as well as on whether the compound is actively transported by uptake and/or efflux transporters. Permeability measurements across polarized, confluent Caco-2 cell monolayers grown on permeable filter supports (Corning, catalog #3391) are used. […] The receiver and donor compartments contain 0.25% bovine serum albumine (BSA) in assay buffer. Passive diffusion and/or active transport of compounds across the monolayer is measured in both apical to basolateral (a-b) and basolateral to apical (b-a) direction. a-b permeability (PappAB) represents drug absorption from the intestine into the blood and b-a permeability (PappBA) drug secretion from the blood back into the intestine via both passive permeability as well as active transport mechanisms mediated by efflux and uptake transporters that are expressed on the Caco-2 cells. After a pre-incubation of 25-30 min at 37° C., at predefined time points (0, 30, 60 and 90 min), samples were taken from the receiver and donor compartment, respectively. Concentrations of test compounds in samples were measured by HPLC/MS/MS, samples from the donor compartment were diluted 1:50 (v:v) with assay buffer, samples from receiver compartment were measured without dilution.
Apparent permeabilities in a-b (PappAB) and b-a (PappBA) directions are calculated according to the formula:
[formula] • Vrec [mL]: buffer volume in receiver compartment • Cdon [μmol/mL]: concentration of test compound in donor compartment at t=0 • ΔCrec: difference between concentrations of test compound in receiver compartment at start and end of incubation time • Δt: Incubation time • Vrec·ΔCrec/Δt [μmol/min]: Amount of compound transferred to receiver compartment per time • A [cm^2]: filter surface
Caco-2 efflux ratios (ER) are calculated as the ratio of PappBA/PappAB.

NCI-H2122 cells = assay: NCI-H2122 CTG proliferation assay (120 h) (NSCLC, G12C); format: cell-based; conditions: Homo sapiens
Experimental: NCI-H2122 CTG Proliferation Assay (120 h) (NSCLC, G12C)
The CTG assay is designed to measure quantitatively the proliferation of NCI-H2122 cells (ATCC CRL-5985), using the CellTiter Glow Assay Kit (Promega G7571). Cells are grown in RPMI medium (ATCC) supplemented with Fetal Calf Serum (Life Technologies, Gibco BRL, Cat. No. 10270-106). On “day 0” 200 NCI-H2122 cells are seeded in 60 μL RPMI ATCC+10% FCS+Penstrep in a black 384-well plate, flat and clear bottom (Greiner, PNr. 781091). Cells are then incubated in the plates at 37° C. in a CO2 incubator overnight. On day 1, compounds (10 mM stock in DMSO) are added with the ECHO acoustic liquid handler system (Beckman Coulter), including DMSO controls. Plates are incubated for 120 h, and cell viability is measured using CellTiter-Glo luminescent cell viability reagent (Promega product code G7570). Viability (stated as percent of control) is defined as relative luminescence units RLU of each well divided by the RLU of cells in DMSO controls. IC50 values are determined from viability measurements by non-linear regression using a four parameter model.

SK-CO-1 cells = assay: SK-CO-1 CTG proliferation assay (120 h) (CRC, G12V); format: cell-based; conditions: Homo sapiens; SK-CO-1 cells (CRC, G12V), CTG 120 h
Experimental: SK-CO-1 CTG Proliferation Assay (120 h) (CRC, G12V)
as §1, with “SK-CO-1 cells (ATCC” for “SAS cells (JCRB0260)”, “SK-CO-1 cells (ATCC HTB-39) are dispensed” for “SAS cells (JCRB0260) are dispensed”, “density of 500 cells per” for “density of 300 cells per”, “60 μL EMEM (Sigma M5650)+10% Fetal Calf” for “60 μL DMEM:F12 (Gibco 31330-038)+10% Fetal Calf”

Compound | Papp A→B at 90 min, 10 μM [1] | efflux ratio at 90 min, 10 μM [1] | IC50 (NCI-H2122 cells) | IC50 (SK-CO-1 cells) | IC50 (SAS cells)
Cc1cn(C)nc1-c1cc(O[C@@H](C)[C@@H]2CCCN2C)nc(-c2noc3c2CCC[C@@]32CCCc3sc(N)c(C#N)c32)n1 [II-68] | 5.8 ×10⁻⁶ cm/s | 1.2 | 1230 nM | 5570 nM | 623 nM
CO[C@@H]1C[C@@H]([C@H](C)Oc2cc(-n3ccnc3)nc(-c3noc4c3CCC[C@@]43CCCc4sc(N)c(C#N)c43)n2)N(C)C1 [II-58] | 13 ×10⁻⁶ cm/s | 1.2 | 904 nM | 90 nM | 342 nM
C[C@H](Oc1cc(-c2ccn(C[C@@H](C)O)n2)nc(-c2noc3c2CCC[C@@]32CCCc3sc(N)c(C#N)c32)n1)[C@@H]1CCCN1C [II-117] | 1.4 ×10⁻⁶ cm/s | 20.7 | 47 nM | 24 nM | 22 nM
C[C@H](Oc1cc(-n2ccc(-c3ccccn3)n2)nc(-c2noc3c2CCC[C@@]32CCCc3sc(N)c(C#N)c32)n1)[C@@H]1CCCN1C [II-119] | 1 ×10⁻⁶ cm/s | 1.1 | 251 nM | 37 nM | 39 nM
C[C@H](Oc1cc(N2CCNC3(CC3)C2)nc(-c2onc3c2CCC[C@@]32CCCc3sc(N)c(C#N)c32)n1)[C@@H]1CCCN1C [I-5] | 1.1 ×10⁻⁶ cm/s | 29 | 2420 nM | 987 nM | 2040 nM
C[C@H](Oc1cc(-c2cccc(CO)c2)nc(-c2noc3c2CCC[C@@]32CCCc3sc(N)c(C#N)c32)n1)[C@@H]1CCCN1C [II-97] | < 9.7 ×10⁻⁶ cm/s |  | 2020 nM | 212 nM | 646 nM
COC(=O)c1ccc(-c2cc(O[C@@H](C)[C@@H]3CCCN3C)nc(-c3noc4c3CCC[C@@]43CCCc4sc(N)c(C#N)c43)n2)o1 [II-114] |  | 0.9 | 680 nM | 64 nM | 28 nM
C[C@H](Oc1cc(-n2cc(-c3cccnc3)nn2)nc(-c2noc3c2CCC[C@@]32CCCc3sc(N)c(C#N)c32)n1)[C@@H]1CCCN1C [II-123] |  | 4.6 | 878 nM | 96 nM | 113 nM
C[C@H](Oc1cc(-c2cc[nH]n2)nc(-c2noc3c2CCC[C@@]32CCCc3sc(N)c(C#N)c32)n1)[C@@H]1CCCN1C [II-71] | 0.5 ×10⁻⁶ cm/s | 63.3 | 933 nM | 18 nM | 47 nM
C[C@H](Oc1cc(-c2ccn(-c3ccccc3)n2)nc(-c2noc3c2CCC[C@@]32CCCc3sc(N)c(C#N)c32)n1)[C@@H]1CCCN1C [II-89] | < 10 ×10⁻⁶ cm/s |  | 1530 nM | 198 nM | 246 nM
C[C@H](Oc1cc(-n2ccnc2)nc(-c2noc3c2CCC[C@@]32CCCc3sc(N)c(C#N)c32)n1)[C@@H]1C[C@@H](F)CN1C [II-120] | 8 ×10⁻⁶ cm/s | 1.5 | 1090 nM | 126 nM | 488 nM
C[C@H](O)Cn1ccc(-c2cc(O[C@@H](C)[C@@H]3CCCN3C)nc(-c3noc4c3CCC[C@@]43CCCc4sc(N)c(C#N)c43)n2)n1 [II-112] | 5.9 ×10⁻⁶ cm/s | 5.6 | 197 nM | 34 nM | 54 nM
C[C@H](Oc1cc(-c2ccn(C)n2)nc(-c2noc3c2CCC[C@@]32CCCc3sc(N)c(C#N)c32)n1)[C@@H]1CCCN1C [II-96] | 6.5 ×10⁻⁶ cm/s | 7.3 | 307 nM | 67 nM | 148 nM

More lines, main results first:

Papp A→B at 90 min, 10 μM [1] | efflux ratio at 90 min, 10 μM [1] | IC50 (NCI-H2122 cells) | IC50 (SK-CO-1 cells) | Compound | IC50 (SAS cells)
0.7 ×10⁻⁶ cm/s | 43.3 | 916 nM | 87 nM | C[C@H](Oc1cc(N2CCC[C@H](O)C2)nc(-c2noc3c2CCC[C@@]32CCCc3sc(N)c(C#N)c32)n1)[C@@H]1CCCN1C [II-57] | 54 nM
 | 1.5 | 1020 nM | 137 nM | C[C@H](Oc1cc(-c2ccn(C3CC3)n2)nc(-c2noc3c2CCC[C@@]32CCCc3sc(N)c(C#N)c32)n1)[C@@H]1CCCN1C [II-98] | 30 nM
12 ×10⁻⁶ cm/s | 2.2 | 1420 nM | 341 nM | C[C@H](Oc1cc(C2COCCO2)nc(-c2noc3c2CCC[C@@]32CCCc3sc(N)c(C#N)c32)n1)[C@@H]1CCCN1C (some centres unmarked) [II-95] | 5180 nM
4.1 ×10⁻⁶ cm/s | 5.4 | 515 nM | 115 nM | C[C@H](Oc1cc(-n2ccnc2)nc(-c2noc3c2CCC[C@@]32CCCc3sc(N)c(C#N)c32)n1)[C@@H]1CCCN1C [II-69] | 102 nM
12 ×10⁻⁶ cm/s | 1.8 | 434 nM | 47 nM | C[C@H](Oc1cc([C@H]2CCOC2)nc(-c2noc3c2CCC[C@@]32CCCc3sc(N)c(C#N)c32)n1)[C@@H]1CCCN1C [II-88] | 2220 nM
1.1 ×10⁻⁶ cm/s | 23.6 | 1160 nM | 159 nM | C[C@H](Oc1cc(N2CCC(C#N)C2)nc(-c2noc3c2CCC[C@@]32CCCc3sc(N)c(C#N)c32)n1)[C@@H]1CCCN1C (some centres unmarked) [II-99] | 88 nM
6.3 ×10⁻⁶ cm/s | 3.7 | 580 nM | 57 nM | COCc1cn(-c2cc(O[C@@H](C)[C@@H]3CCCN3C)nc(-c3noc4c3CCC[C@@]43CCCc4sc(N)c(C#N)c43)n2)nn1 [II-121] | 560 nM
1.5 ×10⁻⁶ cm/s | 22 | 3690 nM | 566 nM | C[C@H](Oc1cc(-n2cc3c(n2)CCNC3)nc(-c2noc3c2CCC[C@@]32CCCc3sc(N)c(C#N)c32)n1)[C@@H]1CCCN1C [II-53] | 1720 nM
 | 0.7 | 1010 nM | 3860 nM | C[C@H](Oc1cc(-n2cc(C3CC3)nn2)nc(-c2noc3c2CCC[C@@]32CCCc3sc(N)c(C#N)c32)n1)[C@@H]1CCCN1C [II-118] | 931 nM
< 4.1 ×10⁻⁶ cm/s |  | 2560 nM | 530 nM | C[C@H](Oc1cc(N2CC[C@H](N(C)C)C2)nc(-c2onc3c2CCC[C@@]32CCCc3sc(N)c(C#N)c32)n1)[C@@H]1CCCN1C [I-11] | 651 nM
3.5 ×10⁻⁶ cm/s | 5.4 | 4910 nM | 754 nM | C[C@H](Oc1cc(N2CCN(C)CC2)nc(-c2noc3c2CCC[C@@]32CCCc3sc(N)c(C#N)c32)n1)[C@@H]1CCCN1C [II-55] | 968 nM
